Data from PubChem BioAssay (NCI).
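Growth conditions: 96-well plates. Treatment: test compound, 48 hours, 5 concentrations. Analysis: linear interpolation between bracketing concentrations; unreached endpoints set to highest concentration. GI50 is the concentration that inhibits growth by half. TGI denotes the concentration required for complete inhibition of growth.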

Columns and labels:
Assay in all cases: DTP human tumour cell line panel, 48 h
[1] = test system: HCT-15 colon
[2] = test system: OVCAR-8 ovarian
[3] = test system: UO-31 renal
[4] = test system: UACC-257 melanoma
[5] = test system: TK-10 renal
[6] = test system: SK-MEL-2 melanoma
[7] = test system: HOP-92 NSCLC
[8] = test system: BT-549 breast
[9] = test system: MCF7 breast
[10] = test system: ACHN renal
[11] = test system: NCI/ADR-RES ovarian
[12] = test system: NCI-H460 lung
[13] = test system: A498 renal
[14] = test system: PC-3 prostate
[15] = test system: UACC-62 melanoma
[16] = test system: SN12C renal
[17] = test system: EKVX NSCLC
[18] = test system: SK-OV-3 ovarian
[19] = test system: OVCAR-4 ovarian
[20] = test system: K-562 leukemia
[21] = test system: OVCAR-5 ovarian
[22] = test system: RPMI-8226 leukemia
[23] = test system: SW-620 colon
[24] = test system: DU-145 prostate
[25] = test system: NCI-H23 lung
[26] = test system: SF-268 CNS
[27] = test system: MDA-MB-231 breast
[28] = test system: OVCAR-3 ovarian
[29] = test system: U251 CNS
[30] = test system: SF-539 CNS
[31] = test system: HOP-62 NSCLC
[32] = test system: HL-60(TB) leukemia
[33] = test system: SF-295 CNS
[34] = test system: SK-MEL-28 melanoma
[35] = test system: IGROV1 ovarian
[36] = test system: M14 melanoma
[37] = test system: NCI-H522 lung
[38] = test system: HS 578T breast
[39] = test system: HCT-116 colon
[40] = test system: SK-MEL-5 melanoma
[41] = test system: CCRF-CEM leukemia
[42] = test system: CAKI-1 renal
[43] = test system: MALME-3M melanoma
[44] = test system: HT29 colon
[45] = test system: HCC-2998 colon
[46] = test system: SNB-75 CNS
[47] = test system: A549 NSCLC
[48] = test system: SNB-19 CNS
[49] = test system: MDA-MB-435
[50] = test system: 786-0 renal
[51] = test system: RXF 393 renal
[52] = test system: KM12 colon
[53] = test system: T-47D breast
[54] = test system: LOX IMVI melanoma
[55] = test system: MOLT-4 leukemia
[56] = test system: COLO 205 colon
[57] = test system: NCI-H226 lung

With `CC1(C)[C@@H](OC(=O)CCC(=O)O)CC[C@]2(C)[C@H]3C(=O)C=C4[C@@H]5C[C@@](C)(C(=O)O)CC[C@]5(C)CC[C@@]4(C)[C@]3(C)CC[C@@H]12` the GI50 [1] was 51.1 µM, the TGI [1] was 78.7 µM and the GI50 [2] was 59.1 µM. For the same molecule, the TGI [2] was 154 µM, the GI50 [3] was 60.1 µM and the TGI [3] was 81.6 µM. It also gave a GI50 [4] of 66.2 µM, a TGI [4] of 91.4 µM and a GI50 [5] of 65.6 µM. For the same molecule, the TGI [5] was 124 µM, the GI50 [6] was 52.1 µM and the TGI [6] was 67.9 µM. The GI50 [7] was 58.6 µM, the TGI [7] was 87.2 µM and the GI50 [8] was 51.1 µM. It also gave a TGI [8] of 83.3 µM, a GI50 [9] of 54.7 µM and a TGI [9] of 136 µM. It also gave a GI50 [10] of 63 µM, a TGI [10] of 114 µM and a GI50 [11] of 81.2 µM. For the same molecule, the TGI [11] was 146 µM, the GI50 [12] was 52.6 µM and the TGI [12] was 76 µM. For the same molecule, the GI50 [13] was 49.2 µM, the TGI [13] was 68 µM and the GI50 [14] was 56 µM. The TGI [14] was 127 µM, the GI50 [15] was 48.1 µM and the TGI [15] was 60.6 µM. For the same molecule, the GI50 [16] was 51.9 µM, the TGI [16] was 105 µM and the GI50 [17] was 52.9 µM. It also gave a TGI [17] of 84.8 µM, a GI50 [18] of 59.4 µM and a TGI [18] of 127 µM. It also gave a GI50 [19] of 64.6 µM, a TGI [19] of 168 µM and a GI50 [20] of 56.2 µM. It also gave a TGI [20] of 230 µM, a GI50 [21] of 83.2 µM and a TGI [21] of 125 µM. For the same molecule, the GI50 [22] was 50.9 µM, the TGI [22] was 69.9 µM and the GI50 [23] was 59.2 µM. The TGI [23] was 126 µM, the GI50 [24] was 58.3 µM and the TGI [24] was 142 µM. The GI50 [25] was 60.1 µM, the TGI [25] was 115 µM and the GI50 [26] was 55.7 µM. The TGI [26] was 143 µM, the GI50 [27] was 78.8 µM and the TGI [27] was 171 µM. For the same molecule, the GI50 [28] was 50.4 µM, the TGI [28] was 62.9 µM and the GI50 [29] was 53.2 µM. It also gave a TGI [29] of 77.4 µM, a GI50 [30] of 53.1 µM and a TGI [30] of 76.7 µM. It also gave a GI50 [31] of 53.9 µM, a TGI [31] of 79.5 µM and a GI50 [32] of 54.6 µM. The TGI [32] was 73.6 µM, the GI50 [33] was 48.7 µM and the TGI [33] was 65 µM. For the same molecule, the GI50 [34] was 57.5 µM, the TGI [34] was 85.4 µM and the GI50 [35] was 55.8 µM. The TGI [35] was 100 µM, the GI50 [36] was 58.4 µM and the TGI [36] was 129 µM. The GI50 [37] was 51.1 µM, the TGI [37] was 80.7 µM and the GI50 [38] was 49.6 µM. For the same molecule, the TGI [38] was 253 µM, the GI50 [39] was 51.8 µM and the TGI [39] was 75.6 µM. It also gave a GI50 [40] of 56 µM, a TGI [40] of 86.8 µM and a GI50 [41] of 52.4 µM. For the same molecule, the TGI [41] was 78.3 µM, the GI50 [42] was 61.6 µM and the TGI [42] was 157 µM. The GI50 [43] was 90.8 µM, the TGI [43] was 128 µM and the GI50 [44] was 56.1 µM. The TGI [44] was 130 µM, the GI50 [45] was 56.1 µM and the TGI [45] was 80.5 µM. For the same molecule, the GI50 [46] was 55 µM, the TGI [46] was 83.5 µM and the GI50 [47] was 61 µM. The TGI [47] was 130 µM, the GI50 [48] was 55 µM and the TGI [48] was 141 µM. For the same molecule, the GI50 [49] was 58.2 µM, the TGI [49] was 98.8 µM and the GI50 [50] was 58.8 µM. It also gave a TGI [50] of 104 µM, a GI50 [51] of 50.5 µM and a TGI [51] of 66 µM. It also gave a GI50 [52] of 54.9 µM and a TGI [52] of 84.1 µM.

`c1ccc2cc(C[n+]3ccn(CCCCCCCCCCn4cc[n+](Cc5ccc6ccccc6c5)c4)c3)ccc2c1` showed a GI50 [1] of 3.76 µM, a TGI [1] greater than 100 µM and a GI50 [2] of 2.18 µM. For the same molecule, the TGI [2] was 13.1 µM, the GI50 [3] was 6.14 µM and the TGI [3] was greater than 100 µM. It also gave a GI50 [4] of 1.37 µM, a TGI [4] of 5.58 µM and a GI50 [5] of 3.28 µM. For the same molecule, the TGI [5] was 16.9 µM, the GI50 [6] was 1.72 µM and the TGI [6] was 5.2 µM. The GI50 [7] was 0.396 µM, the TGI [7] was 2.96 µM and the GI50 [9] was 0.554 µM. It also gave a TGI [9] of 2.3 µM, a GI50 [10] of 6.17 µM and a TGI [10] of 80.3 µM. The GI50 [11] was 29.4 µM, the TGI [11] was greater than 100 µM and the GI50 [12] was 0.376 µM. The TGI [12] was 10.1 µM, the GI50 [13] was 0.0129 µM and the TGI [13] was 2.77 µM. For the same molecule, the GI50 [53] was 0.491 µM, the TGI [53] was 4.74 µM and the GI50 [14] was 1.19 µM. It also gave a TGI [14] of 7.3 µM, a GI50 [15] of 0.646 µM and a TGI [15] of 3.08 µM. The GI50 [17] was 0.442 µM, the TGI [17] was 9.07 µM and the GI50 [18] was 1.36 µM. It also gave a TGI [18] of 6.39 µM, a GI50 [19] of 0.988 µM and a TGI [19] of 9.88 µM. The GI50 [20] was 0.602 µM, the TGI [20] was 2.97 µM and the GI50 [21] was 1.87 µM. For the same molecule, the TGI [21] was 9.48 µM, the GI50 [54] was 1.21 µM and the TGI [54] was 3.66 µM. For the same molecule, the GI50 [22] was 0.737 µM, the TGI [22] was 4.17 µM and the GI50 [23] was 1.57 µM. The TGI [23] was 11.2 µM, the GI50 [24] was 1.06 µM and the TGI [24] was 14.1 µM. For the same molecule, the GI50 [25] was 0.445 µM, the TGI [25] was 3.35 µM and the GI50 [26] was 0.61 µM. For the same molecule, the TGI [26] was 12.3 µM, the GI50 [27] was 1.33 µM and the TGI [27] was 5.3 µM. For the same molecule, the GI50 [28] was 1.95 µM, the TGI [28] was 7.09 µM and the GI50 [30] was 1.19 µM. The TGI [30] was 6.54 µM, the GI50 [31] was 1.09 µM and the TGI [31] was 7.24 µM. It also gave a GI50 [32] of 1.25 µM, a TGI [32] of 2.97 µM and a GI50 [33] of 0.554 µM. For the same molecule, the TGI [33] was 5.44 µM, the GI50 [34] was 1.3 µM and the TGI [34] was 5.66 µM. The GI50 [55] was 1.36 µM, the TGI [55] was 3 µM and the GI50 [35] was 1.11 µM. It also gave a TGI [35] of 3.08 µM, a GI50 [36] of 2.76 µM and a TGI [36] of 15.7 µM. It also gave a GI50 [56] of 0.411 µM, a TGI [56] of 1.68 µM and a GI50 [37] of 0.436 µM. It also gave a TGI [37] of 1.94 µM, a GI50 [38] of 1.03 µM and a TGI [38] of 3.63 µM. For the same molecule, the GI50 [39] was 1.55 µM, the TGI [39] was 15.1 µM and the GI50 [41] was 1.22 µM. It also gave a TGI [41] of 2.97 µM, a GI50 [43] of 0.313 µM and a TGI [43] of 1.48 µM. The GI50 [44] was 0.715 µM, the TGI [44] was 4.74 µM and the GI50 [57] was 0.918 µM. The TGI [57] was 13.6 µM, the GI50 [45] was 1.37 µM and the TGI [45] was 5.13 µM. For the same molecule, the GI50 [49] was 0.819 µM, the TGI [49] was 5.43 µM and the GI50 [50] was 5.33 µM. For the same molecule, the TGI [50] was 32.6 µM, the GI50 [51] was 0.822 µM and the TGI [51] was 3.72 µM. It also gave a GI50 [52] of 0.727 µM and a TGI [52] of 2.73 µM.
